US11034658B2, “Pyridinyl pyrazoles as modulators of RORγT” (Janssen Pharmaceutica NV, priority 2018, dated 2021)

How the values were obtained:
[1] = target: human RORγt ligand binding domain (RORγt LBD) (Homo sapiens (Human), UniProt P51449); experiment: RORγt ThermoFluor assay
[2] = target: full-length human RORγt (GAL4-DBD-RORγt fusion) in HEK293T cells (Homo sapiens (Human), UniProt P51449); experiment: RORγt (full-length human) reporter assay, conditions A or B; assay type: cell-based; conditions: for IC50: HEK293T cells, read-out: RORγt (FL) Reporter Assay A or B, IC50; for inhibition at 3 µM: 3 μM compound concentration (footnote *)
full-length human RORγt (GAL4-DBD-RORγt fusion) in HEK293T cells, sequence (P51449 other isoform, or with tags, fused parts or gaps): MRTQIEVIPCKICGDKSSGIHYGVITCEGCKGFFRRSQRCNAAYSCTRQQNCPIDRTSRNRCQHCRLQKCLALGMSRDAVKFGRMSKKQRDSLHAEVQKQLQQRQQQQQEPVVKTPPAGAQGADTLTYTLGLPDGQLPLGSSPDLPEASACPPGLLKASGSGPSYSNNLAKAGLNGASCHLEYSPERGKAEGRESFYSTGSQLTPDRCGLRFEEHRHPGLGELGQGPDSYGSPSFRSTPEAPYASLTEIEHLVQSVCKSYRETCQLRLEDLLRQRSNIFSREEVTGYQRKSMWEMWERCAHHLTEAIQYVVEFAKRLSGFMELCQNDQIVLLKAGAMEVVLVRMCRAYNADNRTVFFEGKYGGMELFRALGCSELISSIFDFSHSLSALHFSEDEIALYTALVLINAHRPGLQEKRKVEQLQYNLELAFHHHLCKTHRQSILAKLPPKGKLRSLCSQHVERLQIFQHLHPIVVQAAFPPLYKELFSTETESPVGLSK
Method in brief: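 HEK293T cells expressing GAL4-DBD-RORγt fusion (96- or 384-well formats, DMEM/10% FBS) exposed to compound overnight (16–20 h). Firefly luciferase normalized to DMSO and saturating reference compound, then to Renilla; IC50 from dose curve, % inhibition versus DMSO.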

[3] = tested on: IL-17 production by human CD4+ T cells under Th17 differentiation; experiment: Human Th17 assay (IL-17 production by CD4 T cells); assay type: cell-based; conditions: 72 h, IL-17 after 3 days
Text: The human Th17 assay tests the effect of RORγt modulatory compounds on IL-17 production by CD4 T cells under conditions which favor Th17 differentiation. Total CD4^+ T cells were isolated from the peripheral blood mononuclear cells (PBMC) of healthy donors using a CD4^+ T cell isolation kit II, following the manufacturer's instructions (Miltenyi Biotec). Cells were resuspended in a medium of RPMI-1640 supplemented with 10% fetal bovine serum, penicillin, streptomycin, glutamate, and β-mercaptoethanol and were added to 96-well plates at 1.5×10^5 per 100 μL per well. 50 μL of compound at titrated concentrations in DMSO were added into each well at final DMSO concentration at 0.2%. Cells were incubated for 1 hour, then 50 μL of Th17 cell differentiation medium was added to each well. The final concentrations of antibodies and cytokines (R&D Systems) in differentiation medium were: 3×10^6/mL anti-CD3/CD28 beads (prepared using human T cell activation/expansion kit, Miltenyi Biotec), 10 μg/mL anti-IL4, 10 μg/mL anti-IFNγ, 10 ng/mL IL1β, 10 ng/mL IL23, 50 ng/mL IL6, 3 ng/mL TGFβ and 20 U/mL IL2. Cells were cultured at 37° C. and 5% CO2 for 3 days. Supernatants were collected and the accumulated IL-17 in culture was measured by using MULTI-SPOT® Cytokine Plate following manufacture's instruction (Meso Scale Discovery). The plate was read using Sector Imager 6000, and IL-17 concentration was extrapolated from the standard curve. The IC50s were determined by GraphPad.

[4] = tested on: Th17-dependent learned helplessness; conditions: mice; cited from earlier work
obese diabetic mice = conditions: cited from earlier work
[5] = HEK-293T, read-out: RORγt (FL) Reporter Assay A or B, % inhibition

human RORγt ligand binding domain (RORγt LBD), sequence (P51449 other isoform, or with tags, fused parts or gaps): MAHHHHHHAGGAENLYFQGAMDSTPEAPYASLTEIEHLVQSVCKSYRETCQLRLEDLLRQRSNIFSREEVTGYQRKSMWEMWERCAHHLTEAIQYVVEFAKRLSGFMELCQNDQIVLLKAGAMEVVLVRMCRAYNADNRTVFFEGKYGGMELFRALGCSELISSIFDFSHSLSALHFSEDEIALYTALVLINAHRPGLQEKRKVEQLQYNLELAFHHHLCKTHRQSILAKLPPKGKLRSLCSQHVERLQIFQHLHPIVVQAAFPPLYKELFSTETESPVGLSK

Row | Compound | Kd [1] [µM] | IC50 [2] [µM] | inhibition at 3 µM [2, 5] [%] | IC50 [3] [µM] | inhibition at 2 µM ([2]; HEK-293T, 2 μM compound concentration, read-out: RORγt (FL) Reporter Assay A or B, % inhibition) [%] | Th17-dependent learned helplessness [4] | body weight (obese diabetic mice) | fat mass (obese diabetic mice) | food intake (obese diabetic mice) | insulin sensitivity (obese diabetic mice)
1 | CCc1cc(C[C@@H](C)C(F)(F)F)ncc1-c1c(Cl)c(C(=O)NC[C@H]2CC[C@H](S(C)(=O)=O)CC2)nn1CC (relative stereo) [Example 57, 4-Chloro-1-ethyl-5-(4-ethyl-6-((R*)-3,3,3-trifluoro-2-methylpropyl)pyridin-3-yl)-N-((1r,4R)-4-(methylsulfonyl)cyclohexyl)methyl)-1H-pyrazole-3-carboxamide] | 0.02 | 0.34 | 43 | 0.45 | – | – | – | – | – | –
2 | CCc1cc(C[C@@H](C)C(F)(F)F)ncc1-c1c(C)c(C(=O)NC[C@H]2CC[C@H](S(C)(=O)=O)CC2)nn1CC (relative stereo) [Example 58, 1-Ethyl-5-(4-ethyl-6-((R*)-3,3,3-trifluoro-2-methylpropyl)pyridin-3-yl)-4-methyl-N-((1r,4R)-4-(methylsulfonyl)cyclohexyl)methyl)-1H-pyrazole-3-carboxamide] | 0.043 | > 2.9 | 23 | 0.73 | – | – | – | – | – | –
3 | CCc1cc(C[C@@H](C)C(F)(F)F)ncc1-c1c(Cl)c(C(=O)NC[C@]2(O)CC[C@@H](S(C)(=O)=O)CC2)nn1CC (single isomer, unassigned) [Example 56, 4-Chloro-1-ethyl-5-(4-ethyl-6-((R*)-3,3,3-trifluoro-2-methylpropyl)pyridin-3-yl)-N-(((1s,4S)-1-hydroxy-4-(methylsulfonyl)cyclohexyl)methyl)-1H-pyrazole-3-carboxamide] | 0.12 | 2.3 | 30 | 0.37 | – | – | – | – | – | –
4 | CCn1nc(C(=O)NC[C@H]2CC[C@H](S(C)(=O)=O)CC2)c(Cl)c1-c1cnc(C[C@H](C)C(F)(F)F)cc1OC (single isomer, unassigned) [Example 62, 4-Chloro-1-ethyl-5-(4-methoxy-6-((S*)-3,3,3-trifluoro-2-methylpropyl)pyridin-3-yl)-N-((1r,4r)-4-(methylsulfonyl)cyclohexyl)methyl)-1H-pyrazole-3-carboxamide] | 0.017 | 0.18 | – | 0.081 | 89 | – | – | – | – | –
5 | CCn1nc(C(=O)NC[C@]2(O)CC[C@@H](S(C)(=O)=O)CC2)c(C)c1-c1cnc(CC(C)(C)C(F)(F)F)cc1OC(F)F [Example 8, 5-(4-(Difluoromethoxy)-6-(3,3,3-trifluoro-2,2-dimethylpropyl)pyridin-3-yl)-1-ethyl-N-(((1s,4s)-1-hydroxy-4-(methylsulfonyl)cyclohexyl)methyl)-4-methyl-1H-pyrazole-3-carboxamide] | 0.011 | 0.056 | 100 | 0.051 | – | – | – | – | – | –
6 | CCn1nc(C(=O)NC[C@H]2CC[C@H](S(C)(=O)=O)CC2)c(Cl)c1-c1cnc(CC(C)(C)C(F)(F)F)cc1OC(F)F [Example 9, 4-Chloro-5-(4-(difluoromethoxy)-6-(3,3,3-trifluoro-2,2-dimethylpropyl)pyridin-3-yl)-1-ethyl-N-(((1r,4r)-4-(methylsulfonyl)cyclohexyl)methyl)-1H-pyrazole-3-carboxamide] | 0.00075 | 0.0081 | 117 | 0.011 | – | – | – | – | – | –
7 | CCn1nc(C(=O)NC[C@]2(O)CC[C@@H](S(C)(=O)=O)CC2)c(Cl)c1-c1cnc(CC(C)(C)C(F)(F)F)cc1OC(F)F [Example 10, 4-Chloro-5-(4-(difluoromethoxy)-6-(3,3,3-trifluoro-2,2-dimethylpropyl)pyridin-3-yl)-1-ethyl-N-(((1s,4s)-1-hydroxy-4-(methylsulfonyl)cyclohexyl)methyl)-1H-pyrazole-3-carboxamide] | 0.0032 | 0.014 | 98 | 0.048 | – | – | – | – | – | –
8 | CCn1nc(C(=O)NC[C@H]2CC[C@H](S(C)(=O)=O)CC2)c(C)c1-c1cnc(CC(C)(C)C(F)(F)F)cc1OC(F)F [Example 13, 5-(4-(Difluoromethoxy)-6-(3,3,3-trifluoro-2,2-dimethylpropyl)pyridin-3-yl)-1-ethyl-4-methyl-N-(((1r,4r)-4-(methylsulfonyl)cyclohexyl)methyl)-1H-pyrazole-3-carboxamide] | 0.0022 | 0.011 | 91 | 0.038 | – | – | – | – | – | –
9 | CCn1nc(C(=O)NC[C@H]2CC[C@H](S(C)(=O)=O)CC2)c(C)c1-c1cnc(CC(C)(C)C(F)(F)F)cc1C(F)F [Example 29, 5-(4-(Difluoromethyl)-6-(3,3,3-trifluoro-2,2-dimethylpropyl)pyridin-3-yl)-1-ethyl-4-methyl-N-(((1r,4r)-4-(methylsulfonyl)cyclohexyl)methyl)-1H-pyrazole-3-carboxamide] | 0.024 | 0.36 | 39 | 0.21 | – | – | – | – | – | –
10 | CCn1nc(C(=O)NC[C@H]2CC[C@H](S(C)(=O)=O)CC2)c(Cl)c1-c1cnc(CC(C)(C)C(F)F)cc1OC(F)F [Example 37, 4-Chloro-5-(6-(3,3-difluoro-2,2-dimethylpropyl)-4-(difluoromethoxy)pyridin-3-yl)-1-ethyl-N-(((1r,4r)-4-(methylsulfonyl)cyclohexyl)methyl)-1H-pyrazole-3-carboxamide] | 0.0035 | 0.021 | 98 | 0.034 | – | – | – | – | – | –
11 | CC(=O)Nc1nc(C)c(S(=O)(=O)Nc2ccc(C(O)(C(F)(F)F)C(F)(F)F)cc2)s1 [SR1001] | – | – | – | – | – | reduced Th17-dependent learned helplessness | – | – | – | –
12 | CC(=O)N1CCN(Cc2ccc(-c3ccc(C(O)(C(F)(F)F)C(F)(F)F)cc3)cc2)CC1 [SR1555] | – | – | – | – | – | – | reduced body weight | significant reduction in fat mass | modest reduction in food intake | improved insulin sensitivity
